Laboratory results as given in PMC9413440, “An Iterative Approach Guides Discovery of the FabI Inhibitor Fabimycin, a Late-Stage Antibiotic Candidate with In Vivo Efficacy against Drug-Resistant Gram-Negative Infections” (ACS Central Science, 2022).
Like-named read-outs stand apart in the source and are kept apart here.

Experiments:
in vivo = test: in vivo
From the text: Mouse maximum tolerated dose (MTD) of fabimycin
The protocol to assess fabimycin’s murine MTD when formulated in 20% sulfobutyl ether(7) β-cyclodextrin (SBE-β-CD) in H2O was approved by the Institutional Animal Care and Use Committee (IACUC) at the University of Illinois at Urbana-Champaign (protocol number: 19181). […]
from Charles River were used. Mice were randomly chosen and divided into subsequent groups. No additional randomization was used to allocate the experimental groups; blinding was not performed for subsequent quantitation.
The MTD of a single dosage of a given compound was determined before evaluating the MTD of multiple dosages. […]
weeks (single dose). The single-dose MTDs were determined first. For multiple doses, the compound was given by daily […]
highest dosage with acceptable toxicity (<20% weight loss). MTD values shown for Debio-1452-NH3 are as previously reported.3 MTD values for fabimycin when formulated in 17% Cremophor EL/3% SBE-β-CD were drawn from infection models conducted with neutropenic A. baumannii-infected mice (see below). […]
River Licensee) weighing 18 ± 2 grams were used.10 All animals were specific pathogen free. Mice were rendered neutropenic via cyclophosphamide (CP) administration by two intraperitoneal (IP) injections following a standard method for mouse thigh infection models.11 The first CP dose, 150 mg/kg, was administered at four days before infection (Day –4); and the second, 100 mg/kg, at 24 h before infection (Day –1), prior to infection on Day 0.

Streptococcus pneumoniae = test: MIC, Streptococcus pneumoniae strains; type: cell-based
Protocol: II. Materials and Methods for Biological Experiments
S. aureus ATCC 29213 and E. coli MG1655 were obtained from the American Type Culture Collection (ATCC). E. coli BW25113 and E. coli JW5503 were obtained from the Keio Collection. AR-bank strains were obtained from the Centers for Disease Control and Prevention and FDA Antibiotic Resistance Isolate Bank.
Antimicrobial susceptibility tests
Susceptibility testing was performed in biological triplicate, unless noted otherwise, using the micro-dilution broth method as outlined by the Clinical and Laboratory Standards Institute. Bacteria were cultured with cation-adjusted Mueller Hinton broth (Sigma Aldrich, catalogue number: 90922). […]
NH3: m/z 391.2 → 171.0. Fabimycin: m/z 405.3 → 145.3. Power analysis was not used to determine the number of replicates. Error bars represent the standard error of the mean of three biological replicates. All compounds evaluated in biological assays were ≥95% pure.

For `Cc1c(CN(C)C(=O)/C=C/c2cnc3c(c2)CC[C@H](N)C(=O)N3)oc2ccccc12` [fabimycin], the MTD (in vivo; BALB/c, mouse, iv) was 100 mg/kg, the MTD at 1 day (in vivo; BALB/c, mouse, iv) was 75 mg/kg and the MTD at 3 d (in vivo; BALB/c, mouse, iv) was 75 mg/kg. For the same compound, the MTD at 2 weeks (in vivo; female, C57BL/6, mouse, ip) was over 200 mg/kg, the MTD at 1 day (in vivo; female, C57BL/6, mouse, ip) was over 200 mg/kg and the MTD at 5 d (in vivo; female, C57BL/6, mouse, ip) was over 100 mg/kg. The MIC (Streptococcus pneumoniae; S. pneumoniae 202-5872) was over 128 µg/mL, the MIC (Streptococcus pneumoniae; S. pneumoniae 202-6154) was over 128 µg/mL and the MIC (Streptococcus pneumoniae; S. pneumoniae 202-6515) was over 128 µg/mL. The MIC (Streptococcus pneumoniae; S. pneumoniae 202-7382) was over 128 µg/mL, the MIC (Streptococcus pneumoniae; S. pneumoniae CO314937) was over 128 µg/mL and the MIC (Streptococcus pneumoniae; S. pneumoniae MD77773) was over 128 µg/mL. For the same compound, the MIC (Streptococcus pneumoniae; S. pneumoniae MD77841) was over 128 µg/mL, the MIC (Streptococcus pneumoniae; S. pneumoniae NYO5984) was over 128 µg/mL and the MIC (Streptococcus pneumoniae; Streptococcus pneumoniae, ATCC49619, S. pneumoniae ATCC 49619, read-out: MIC) was over 128 µg/mL. The MIC (Streptococcus pneumoniae; Streptococcus pneumoniae, S. pneumoniae NYO5986, read-out: MIC) was over 128 µg/mL.
